Data on eight molecules can be found in ChEMBL document CHEMBL1201862, “PubChem BioAssay data set” (2004).

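In this assay, cells in 96-well plates receive the compound at five concentrations for 48 hours. Endpoints are linearly interpolated between the surrounding concentrations. Here, GI50 denotes the concentration required for 50% inhibition of growth.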 The source made the active and inactive calls. No stated cut-off is given here; in the data, active = GI50 up to about 1.1 µM and inactive = higher.

Some test systems named below: SF-539; SNB-75; SN12C; HT-29; NCI/ADR-RES; M14; HCC 2998; UACC-62; MDA-MB-435; IGROV-1; NCI-H226; OVCAR-4; COLO 205; MCF7; SW-620; EKVX; OVCAR-3; SK-MEL-5; HCT-15.
Holding throughout (assay): NCI tumour cell line growth inhibition, 48 h

`O[C@@H]1C[C@@H]2N[C@@](O)(C[C@@H]2O)[C@H]1O`: the GI50 in the experiment with SF-539 is > 100 µM (inactive); with SNB-75, 84.3 µM (inactive); in the experiment with SN12C it was > 100 µM (inactive); in the experiment on HT-29 it was > 100 µM (inactive); in the experiment on NCI/ADR-RES, > 100 µM (inactive); in the experiment with M14 it was > 100 µM (inactive). The GI50 in the experiment on HCC 2998, in the experiment with UACC-62, with MDA-MB-435, in the experiment on IGROV-1, in the experiment with NCI-H226 and with OVCAR-4 was > 100 µM (inactive) each time. For the same molecule, the GI50 in the experiment with COLO 205, with MCF7, with SW-620, in the experiment on EKVX, in the experiment on OVCAR-3 and in the experiment with SK-MEL-5 was > 100 µM (inactive) throughout. The GI50 with HCT-15 is over 100 µM.
For the molecule `CCC1(c2ccc(OC)c(OC)c2)CCN(S(=O)(=O)c2ccc(C)cc2)C1` (configuration not stated), the GI50 with SF-539 was > 100 µM (inactive); with SNB-75 it was > 100 µM (inactive); with SN12C, > 100 µM (inactive); in the experiment on HT-29 it was > 100 µM (inactive); in the experiment on NCI/ADR-RES it was 72.8 µM (inactive); in the experiment with M14 it was > 100 µM (inactive). For the same molecule, the GI50 in the experiment on HCC 2998 is > 100 µM (inactive); with UACC-62, > 100 µM (inactive); with MDA-MB-435, 82.6 µM (inactive); in the experiment on IGROV-1 it was > 100 µM (inactive); in the experiment on NCI-H226, > 100 µM (inactive); in the experiment on OVCAR-4 it was 39.4 µM (inactive). In addition, the GI50 with COLO 205 is > 100 µM (inactive); in the experiment with MCF7, > 100 µM (inactive); with SW-620, > 100 µM (inactive); with EKVX, > 100 µM (inactive); in the experiment on OVCAR-3, > 100 µM (inactive); with SK-MEL-5 it was 33.7 µM (inactive). Further, the GI50 in the experiment with HCT-15 was over 100 µM.
As for `CC1(C)C(=O)C2(C#N)CCC1C2` (configuration not stated), the GI50 in the experiment on SF-539 was > 100 µM (inactive); in the experiment with SNB-75, > 84.7 µM (inactive); in the experiment with SN12C it was > 100 µM (inactive); with HT-29, > 100 µM (inactive); in the experiment with NCI/ADR-RES, > 100 µM (inactive); in the experiment with M14, > 100 µM (inactive). Moreover, the GI50 in the experiment with HCC 2998, in the experiment on UACC-62, in the experiment on MDA-MB-435, in the experiment with IGROV-1, in the experiment on NCI-H226 and with OVCAR-4 was > 100 µM (inactive) in each case. In addition, the GI50 in the experiment with COLO 205, with MCF7, in the experiment on SW-620, with EKVX, in the experiment on OVCAR-3 and with SK-MEL-5 was > 100 µM (inactive) each time. In the experiment on HCT-15, the GI50 is over 100 µM.
Take `CCCCn1c(C)c(C(=O)OCC)s/c1=N/Nc1nc2ccccc2nc1-c1ccccc1`: the GI50 in the experiment with SF-539, with SNB-75, in the experiment with SN12C, in the experiment on HT-29, in the experiment with NCI/ADR-RES and with M14 was > 100 µM (inactive) in each case. The GI50 in the experiment with HCC 2998 was > 100 µM (inactive); in the experiment with UACC-62, > 100 µM (inactive); in the experiment with MDA-MB-435, > 100 µM (inactive); in the experiment on IGROV-1, 75.7 µM (inactive); in the experiment with NCI-H226, 78.5 µM (inactive); in the experiment with OVCAR-4 it was 65 µM (inactive). Further, the GI50 is > 100 µM (inactive) in the experiment on COLO 205; 82.4 µM (inactive) in the experiment on MCF7; > 100 µM (inactive) with SW-620; > 100 µM (inactive) in the experiment with EKVX; 72.1 µM (inactive) in the experiment on OVCAR-3; 46.8 µM (inactive) in the experiment on SK-MEL-5. The GI50 in the experiment with HCT-15 was over 100 µM.
`COC(O)C(=O)c1c2c(cc3c1CCC3)CCC2` (configuration not stated): the GI50 in the experiment on SF-539, in the experiment with SNB-75, in the experiment on SN12C, with HT-29, with NCI/ADR-RES and in the experiment on M14 was > 100 µM (inactive) throughout. Moreover, the GI50 in the experiment on HCC 2998, with UACC-62, with MDA-MB-435, in the experiment with IGROV-1, in the experiment with NCI-H226 and in the experiment with OVCAR-4 was > 100 µM (inactive) in each case. Also, the GI50 in the experiment on COLO 205, in the experiment on MCF7, in the experiment on SW-620, with EKVX, in the experiment with OVCAR-3 and in the experiment with SK-MEL-5 was > 100 µM (inactive) throughout. This molecule displayed a GI50 with HCT-15 of over 100 µM.
On to `N#CC(C#N)=Cc1c(O)ccc2ccccc12`, for which the GI50 is 10.6 µM (inactive) in the experiment on SF-539; 3.3 µM (inactive) with SNB-75; 13.6 µM (inactive) with SN12C; 14.5 µM (inactive) with HT-29; 17.3 µM (inactive) in the experiment with NCI/ADR-RES; 13.8 µM (inactive) with M14. For the same molecule, the GI50 with HCC 2998 is 16 µM (inactive); with UACC-62, 12.9 µM (inactive); in the experiment with MDA-MB-435, 14.4 µM (inactive); with IGROV-1, 17.8 µM (inactive); in the experiment with NCI-H226, 21.3 µM (inactive); with OVCAR-4 it was 18.3 µM (inactive). The GI50 in the experiment on COLO 205 was 15.2 µM (inactive); in the experiment on MCF7, 10.1 µM (inactive); with SW-620, 11.9 µM (inactive); with EKVX it was 12 µM (inactive); with OVCAR-3 it was 13.7 µM (inactive); with SK-MEL-5, 13.3 µM (inactive). In the experiment with HCT-15, this molecule showed a GI50 of 14.1 µM.
`O=[N+]([O-])c1ccc2c(c1)S(=O)(=O)N1Cc3ccccc3CCN21`: the GI50 is 54.5 µM (inactive) in the experiment on SF-539; 59.3 µM (inactive) in the experiment with SNB-75; > 100 µM (inactive) in the experiment with SN12C; > 100 µM (inactive) in the experiment with HT-29; > 100 µM (inactive) in the experiment with NCI/ADR-RES; > 100 µM (inactive) in the experiment on M14. Moreover, the GI50 with HCC 2998, in the experiment with UACC-62, with MDA-MB-435, in the experiment with IGROV-1, with NCI-H226 and with OVCAR-4 was > 100 µM (inactive) throughout. For the same molecule, the GI50 was > 100 µM (inactive) in the experiment with COLO 205; > 100 µM (inactive) in the experiment with MCF7; > 100 µM (inactive) in the experiment on SW-620; 13.3 µM (inactive) in the experiment with EKVX; 48.8 µM (inactive) in the experiment with OVCAR-3; > 100 µM (inactive) in the experiment on SK-MEL-5. The molecule also yielded a GI50 in the experiment on HCT-15 of over 100 µM.
In the case of `CC(N/N=C(\S)N1CCCCCC1)c1cccnn1` (configuration not stated), the GI50 with SF-539 is 0.194 µM (active); in the experiment on SNB-75, 1.75 µM (inactive); in the experiment on SN12C it was 0.484 µM (active); with HT-29, 0.483 µM (active); in the experiment with NCI/ADR-RES, 0.409 µM (active); with M14, 0.319 µM (active). The GI50 in the experiment on HCC 2998 is 2.45 µM (inactive); in the experiment on UACC-62 it was 0.264 µM (active); in the experiment on MDA-MB-435 it was 0.61 µM (active); in the experiment on IGROV-1, 0.361 µM (active); in the experiment on NCI-H226, 0.618 µM (active); in the experiment on OVCAR-4, 0.348 µM (active). Besides, the GI50 was 0.146 µM (active) in the experiment with COLO 205; 0.258 µM (active) in the experiment on MCF7; 0.147 µM (active) with SW-620; 0.27 µM (active) with EKVX; 0.192 µM (active) with OVCAR-3; 0.248 µM (active) with SK-MEL-5. This molecule also had a GI50 with HCT-15 of 0.386 µM.
